Results: patent US7153822B2, “Compositions and methods for modulating connexin hemichannels” (Wyeth, priority 2002, dated 2006)
“Also recorded” adds a separate entry of the source. Square brackets hold non-standard residues; d marks the D form. Peptide text beside a SMILES is read from it. dHyp = O=C(O)[C@H]1C[C@H](O)CN1

Legend:
connexin hemi-channels = assay: calcein dye uptake in cardiomyocytes under ischemia mimicking solution (Example 4); assay type: cell-based, rat; details: 10 nM co-incubation during metabolic stress (stress alone 38% higher), n=6
Description: 1. Cell culture: Briefly, the hearts from 20 neonate rats (age 1–2 days) were excised aseptically. The ventricles were isolated and cut into 4–6 pieces, which are digested in several steps in a Hanks buffered saline with trypsin and DNAse. The cells were then centrifuged and resuspended in MEM with 5% FCS. To eliminate non-muscle cells the suspension was preplated in petri dishes for 30 minutes at 37° C. The cells in suspesion were then seeded onto collagen coated coverslips.
2. Dye-uptake: The cover slips with cardiomyocytes were incubated for 30 minutes with control solution (PBS) containing in mM: Na^+ 152, K^+ 4.2, Cl^− 141.5, PO4^3− 9.5, Ca^2+ 0.9, Mg^2+ 0.5, glucose 6, pH 7.4. or an ischmia mimicking (injury) solution (as control only K^+ 8.2, no glucose, 10 mM deoxy-glucose, pH 6.5), both solutions containing 200 μM calcein. Then the cells were washed for 10 minutes with control solution.
The cover slips were mounted in an open chamber on the stage of an inverted microscope. Ten random fields were chosen and from each field three cells were chosen under conventional light microscopy. Then the cells were excited by 480 nm light and the fluorescence emmision measured at 510 nm, where the emission intensity is a measure of dye-uptake.
The effect of the compound 1 on dye-uptake was investigated under two conditions: […]

connexin 43 (Cx43) = assay: immunoprecipitation and immunoblot of phosphorylated connexin 43; assay type: cell-based
Description: H9c2 cells were seeded in 24-multi well dishes in a density of 7,900 cells/cm^2 (˜15,000 cells/well) and grown for 3 days in MEM suplemented with 10% foetal calf serum (FCS) and 1000 units penicillin/1000 μg streptomycin (pen/strep) in an atmosphere of 5% CO2 and 100% humidity at 37° C.
The labelled cells were incubated in Triton X-100 lysis buffer (˜5*10^7 cells/ml) for 1 hr at 4° C. The lysate is centrifuged 30 min at 20,000*g for 30 min. The supernatant was precleared by adding 10 ul Sepharose per 200 μl supernatant. The precleared supernatant were then added 0.5–1 μg phospho-tyrosine or phospho-serine antibodies (Sigma) and incubated for 1.5 hr at 4° C. in an orbital shaker. The antibody-complex was then captured by incubation with 50 μl of a 1:1 slurry of protein G Sepharose for 1.5 hr. Finally the complex were extensively washed with 0.1% (w/v) Triton X-100, 50 mM Tris, pH 7.4, 300 mM NaCl and 5 mM EDTA.
The complexes were loaded onto a 12% SDS gel and blotted onto a PVDF membrane. The membrane is blocked with 0.1% Tween 20, 50 mM Tris, pH 7.4, 300 mM NaCl, 5% dry milk (TBST) for minimum 2 h. The membrane was subsequently incubated with connexin 43 specific antibodies (Zymed) for 1.5 h at RT and developed with ECL+ (Amersham).

infarcted mice = assay: bone marrow cell transplantation after myocardial infarction (design of Orlic et al); assay type: in vivo; details: repeated administration during the proliferation process
Description: Myocardial infarction leads to loss of tissue and impairment of cardiac performance. The remaining myocytes are unable to reconstitute the necrotic tissue, and the post-infarcted heart deteriorates with time. Injury to a target organ is sensed by distant stem cells, which migrate to the site of damage and undergo alternate stem cell differentiation; these events promote structural and functional repair. This high degree of stem cell plasticity prompted Orlic et al (Nature 410, 701–705 (2001)) to test whether dead myocardium could be restored by transplanting bone marrow cells in infarcted mice. They sorted lineage-negative (Lin−) bone marrow cells from transgenic mice expressing enhanced green fluorescent protein by fluorescence-activated cell sorting on the basis of c-kit expression. Shortly after coronary ligation, Lin− c-kitPOS cells were injected in the contracting wall bordering the infarct. […] The developing tissue comprised proliferating myocytes and vascular structures. Their studies indicate that locally delivered bone marrow cells can generate de novo myocardium, ameliorating the outcome of coronary artery disease. […]

in vivo = details: rat, ip
Description: Compound 1 was delivered by an osmotic minipump (Alzet model 2ML4) that was inserted into the intraperitoneal (i.p.) cavity immediately prior to induction of the myocardial infarction. The pump was filled with vehicle (isotonic saline) or Compound 1 and primed at 37° C. for 24 hours prior to the operation. In order to ensure that the therapeutic plasma concentration was obtained already at the time of infarction, a loading dose of Compound 1 was given s.c. prior to ligation of the LAD.
After administration of the s.c. loading dose of Compound 1 and after i.p. insertion of the osmotic minipump, a left thoracotomy was performed, and the left anterior decending artery was ligated using a 6-0 silk suture. The thorax is closed in layers, and a negative pressure was induced in the pleural cavity to unfold the lungs. Sham-operated animals were subjected to the same procedure without ligation of the LAD. Postoperatively, the animal were allowed to recover in a heated cabinet at 30° C. with 50% oxygen until the next morning. To prevent dehydration during the recovery period, the rat was given 5 ml 5% glucose s.c. immediately after completion of surgery and another 5 ml 5% glucose at 4 p.m. To relieve postoperative pain, the rat was treated with buprenorphine (20 μg/100 g s.c. b.i.d.) and meloxicam (0.1 mg/100 g s.c. once daily) for three days after the myocardial infarction. […] Plasma concentrations of Compound 1 were measured by mass spectrometry following solid phase extraction.

CC(=O)N[C@H](Cc1ccc(O)cc1)C(=O)N1CCC[C@@H]1C(=O)N1C[C@@H](O)C[C@@H]1C(=O)NCC(=O)N[C@H](C)C(=O)NCC(N)=O [Compound 1, Ac-D-Tyr-D-Pro-D-4Hyp-Gly-D-Ala-Gly-NH2] (Ac-[dY][dP][dHyp]G[dA]G-NH2)
calcein dye uptake above control cells (connexin hemi-channels): 5% | connexin 43 tyrosine phosphorylation (connexin 43 (Cx43); cardiomyocytes exposed for 4 h with 0, 1, 10, 50 and 100 nM): increase connexin 43 tyrosine phosphorylation | tyrosine phosphorylation of connexin 43 (connexin 43 (Cx43); cultured H9c2 cardiomyocytes): phosphorylation of Cx43 tyrosine; also recorded: mediates tyrosine phosphorylation of connexin 43 | Ser-phosphorylation of connexin 43 (connexin 43 (Cx43); in some experiments): decrease Ser-phosphorylation | connexin 43 expression (infarcted mice): increase in connexin 43 expression | level at time molar at 504 h (in vivo; 11 pmol/kg/min): 1.7 ± 0.4 nM | level at time molar at 504 h (in vivo; 110 pmol/kg/min): 5.7 ± 0.4 nM | level at time molar at 504 h (in vivo; 1100 pmol/kg/min): 93.7 ± 12.3 nM
